Assays:
[1] = tested on: blackgrass; assay: Test B pre/postemergence blackgrass; format: in vivo, Alopecurus myosuroides
How it was run: (§1)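 Response is a visual 0-to-10 score relative to untreated plants, where 0 means no effect and 10 means complete control, taken twelve to sixteen days after application. Treatments went onto soil at planting and onto foliage of 1- to 4-leaf plants, using a surfactant-containing non-phytotoxic solvent.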

[2] = tested on: pigweed; assay: Test B pre/postemergence pigweed; format: in vivo, Amaranthus retroflexus
How it was run: as §1

[3] = tested on: rape; assay: Test B pre/postemergence rape; format: in vivo, Brassica napus
How it was run: as §1

[4] = tested on: crabgrass; assay: Test B pre/postemergence crabgrass; format: in vivo, Digitaria sanguinalis
How it was run: as §1

[5] = tested on: wild oat; assay: Test B pre/postemergence wild oat; format: in vivo, Avena fatua
How it was run: as §1

[6] = tested on: sugar beet; assay: Test B pre/postemergence sugar beet; format: in vivo, Beta vulgaris
How it was run: as §1

[7] = tested on: cocklebur; assay: Test B pre/postemergence cocklebur; format: in vivo, Xanthium strumarium
How it was run: as §1

[8] = tested on: morningglory; assay: Test B pre/postemergence morningglory; format: in vivo, Ipomoea hederacea
How it was run: as §1

[9] = tested on: surinam grass; assay: Test B pre/postemergence surinam grass; format: in vivo, Brachiaria decumbens
How it was run: as §1

[10] = tested on: purple nutsedge; assay: Test B pre/postemergence purple nutsedge; format: in vivo, Cyperus rotundus
How it was run: as §1

[11] = tested on: wheat; assay: Test B pre/postemergence wheat; format: in vivo, Triticum aestivum
How it was run: as §1

[12] = tested on: corn; assay: Test B pre/postemergence corn; format: in vivo, Zea mays
How it was run: as §1

[13] = tested on: soybean; assay: Test B pre/postemergence soybean; format: in vivo, Glycine max
How it was run: as §1

[14] = tested on: bedstraw; assay: Test B pre/postemergence bedstraw; format: in vivo, Galium aparine; details: Preemergence
How it was run: as §1

[15] = tested on: giant foxtail; assay: Test B pre/postemergence giant foxtail; format: in vivo, Setaria faberii
How it was run: as §1

[16] = tested on: velvetleaf; assay: Test B pre/postemergence velvetleaf; format: in vivo, Abutilon theophrasti
How it was run: as §1

[17] = Postemergence, Rate 62 g/ha, scale 0 to 10, 0 is no effect, 10 is complete control
[18] = Postemergence, Rate 125 g/ha, scale of 0 to 10 where 0 is no effect and 10 is complete control
[19] = Preemergence, Rate 62 g/ha, scale of 0 to 10 where 0 is no effect and 10 is complete control
[20] = Preemergence, Rate 125 g/ha, scale of 0 to 10 where 0 is no effect and 10 is complete control
[21] = Preemergence, Rate 250 g/ha, scale 0 (no effect) to 10 (complete control)
[22] = Preemergence, Rate 500 g/ha, scale of 0 to 10 where 0 is no effect and 10 is complete control
[23] = Rate 250 g/ha, Postemergence, scale 0 to 10, 0 is no effect, 10 is complete control
[24] = Rate 500 g/ha, Postemergence, scale 0 to 10, 0 is no effect, 10 is complete control

For `CC(C)N(C(=O)n1oc(=O)n(CCCCl)c1=O)c1ccc(F)cc1` [Compound 713], the “Plant response rating, Blackgrass” value [1, 17] was 1, the “Blackgrass plant response rating” value [1, 18] was 3 and the “Blackgrass plant response rating” value [1, 19] was 5. The “Plant response rating, Blackgrass” value [1, 20] was 8, the “Blackgrass plant response rating” value [1, 21] was 9 and the “Plant response rating, Blackgrass” value [1, 22] was 9. The “Blackgrass plant response rating” value [1, 23] was 7, the “Blackgrass plant response rating” value [1, 24] was 7 and the “Plant response rating, Redroot pigweed” value [2, 17] was 2. For the same molecule, the “Redroot pigweed plant response rating” value [2, 19] was 6, the “Plant response rating, Redroot pigweed” value [2, 20] was 7 and the “Redroot pigweed plant response rating” value [2, 21] was 8. The “Redroot pigweed plant response rating” value [2, 23] was 9, the “Redroot pigweed plant response rating” value [2, 24] was 9 and the “Plant response rating, Rape” value [3, 17] was 0. The “Rape plant response rating” value [3, 18] was 0, the “Rape plant response rating” value [3, 19] was 4 and the “Plant response rating, Rape” value [3, 20] was 4. For the same molecule, the “Rape plant response rating” value [3, 21] was 8, the “Rape plant response rating” value [3, 23] was 6 and the “Rape plant response rating” value [3, 24] was 6. For the same molecule, the “Plant response rating, Crabgrass” value [4, 17] was 2, the “Crabgrass plant response rating” value [4, 18] was 9 and the “Crabgrass plant response rating” value [4, 19] was 10. For the same molecule, the “Plant response rating, Crabgrass” value [4, 20] was 10, the “Crabgrass plant response rating” value [4, 21] was 10 and the “Crabgrass plant response rating” value [4, 23] was 9. For the same molecule, the “Crabgrass plant response rating” value [4, 24] was 9, the “Plant response rating, Wild oats” value [5, 17] was 0 and the “Wild oats plant response rating” value [5, 18] was 0. The “Wild oats plant response rating” value [5, 19] was 2, the “Plant response rating, Wild oats” value [5, 20] was 5 and the “Wild oats plant response rating” value [5, 21] was 8. The “Wild oats plant response rating” value [5, 23] was 1, the “Wild oats plant response rating” value [5, 24] was 5 and the “Plant response rating, Sugarbeets” value [6, 17] was 0. For the same molecule, the “Sugarbeets plant response rating” value [6, 18] was 0, the “Sugarbeets plant response rating” value [6, 19] was 3 and the “Plant response rating, Sugarbeets” value [6, 20] was 4. For the same molecule, the “Sugarbeets plant response rating” value [6, 21] was 7, the “Sugarbeets plant response rating” value [6, 23] was 0 and the “Sugarbeets plant response rating” value [6, 24] was 5. The “Plant response rating, Cocklebur” value [7, 17] was 1, the “Cocklebur plant response rating” value [7, 18] was 2 and the “Cocklebur plant response rating” value [7, 19] was 0. For the same molecule, the “Plant response rating, Cocklebur” value [7, 20] was 0, the “Cocklebur plant response rating” value [7, 21] was 0 and the “Plant response rating, Cocklebur” value [7, 22] was 0. The “Cocklebur plant response rating” value [7, 23] was 3, the “Cocklebur plant response rating” value [7, 24] was 6 and the “Plant response rating, Morningglory” value [8, 17] was 2. The “Morningglory plant response rating” value [8, 18] was 3, the “Morningglory plant response rating” value [8, 19] was 0 and the “Plant response rating, Morningglory” value [8, 20] was 0. The “Morningglory plant response rating” value [8, 21] was 0, the “Morningglory plant response rating” value [8, 23] was 7 and the “Morningglory plant response rating” value [8, 24] was 10. For the same molecule, the “Plant response rating, B. signalgrass” value [9, 17] was 0, the “B. signalgrass plant response rating” value [9, 18] was 3 and the “B. signalgrass plant response rating” value [9, 19] was 5. For the same molecule, the “Plant response rating, B. signalgrass” value [9, 20] was 7, the “B. signalgrass plant response rating” value [9, 21] was 8 and the “Plant response rating, B. signalgrass” value [9, 22] was 9. For the same molecule, the “B. signalgrass plant response rating” value [9, 23] was 5, the “B. signalgrass plant response rating” value [9, 24] was 7 and the “Plant response rating, Nutsedge” value [10, 17] was 0. For the same molecule, the “Nutsedge plant response rating” value [10, 18] was 0, the “Nutsedge plant response rating” value [10, 19] was 0 and the “Plant response rating, Nutsedge” value [10, 20] was 0. The “Nutsedge plant response rating” value [10, 21] was 0, the “Nutsedge plant response rating” value [10, 23] was 0 and the “Nutsedge plant response rating” value [10, 24] was 3. For the same molecule, the “Plant response rating, Wheat” value [11, 17] was 0, the “Wheat plant response rating” value [11, 18] was 1 and the “Wheat plant response rating” value [11, 19] was 0. For the same molecule, the “Plant response rating, Wheat” value [11, 20] was 0, the “Wheat plant response rating” value [11, 21] was 1 and the “Wheat plant response rating” value [11, 23] was 2. For the same molecule, the “Wheat plant response rating” value [11, 24] was 2, the “Plant response rating, Corn” value [12, 17] was 0 and the “Corn plant response rating” value [12, 18] was 0. The “Corn plant response rating” value [12, 19] was 0, the “Plant response rating, Corn” value [12, 20] was 0 and the “Corn plant response rating” value [12, 21] was 0. The “Corn plant response rating” value [12, 23] was 0, the “Corn plant response rating” value [12, 24] was 5 and the “Plant response rating, Soybean” value [13, 17] was 3. The “Soybean plant response rating” value [13, 18] was 4, the “Soybean plant response rating” value [13, 19] was 0 and the “Plant response rating, Soybean” value [13, 20] was 0. The “Soybean plant response rating” value [13, 21] was 0, the “Soybean plant response rating” value [13, 23] was 5 and the “Soybean plant response rating” value [13, 24] was 5. The “Bedstraw plant response rating” value ([14]; Rate 62 g/ha, scale of 0 to 10 where 0 is no effect and 10 is complete control) was 0, the “Plant response rating, Bedstraw” value ([14]; Rate 125 g/ha, scale of 0 to 10 where 0 is no effect and 10 is complete control) was 0 and the “Bedstraw plant response rating” value ([14]; Rate 250 g/ha, scale 0 (no effect) to 10 (complete control)) was 2. For the same molecule, the “Plant response rating, Bedstraw” value ([14]; Rate 500 g/ha, scale of 0 to 10 where 0 is no effect and 10 is complete control) was 6, the “Plant response rating, Giant foxtail” value [15, 17] was 4 and the “Giant foxtail plant response rating” value [15, 18] was 9. For the same molecule, the “Giant foxtail plant response rating” value [15, 19] was 10, the “Plant response rating, Giant foxtail” value [15, 20] was 10 and the “Giant foxtail plant response rating” value [15, 21] was 10. The “Giant foxtail plant response rating” value [15, 23] was 9, the “Giant foxtail plant response rating” value [15, 24] was 9 and the “Plant response rating, Velvetleaf” value [16, 17] was 3. The “Velvetleaf plant response rating” value [16, 18] was 6, the “Velvetleaf plant response rating” value [16, 19] was 2 and the “Plant response rating, Velvetleaf” value [16, 20] was 5. For the same molecule, the “Velvetleaf plant response rating” value [16, 21] was 5, the “Velvetleaf plant response rating” value [16, 23] was 6 and the “Velvetleaf plant response rating” value [16, 24] was 7.

— patent publication US6737383B1, “Herbicidal oxadiazolidines” (priority 1999, dated 2004)
